system: Haemonchus contortus; experiment: Method A: Haemonchus contortus L1 larvae, microtitre plate screen; conditions: 96 h, read-out: motility inhibition

| Structure (SMILES) | inhibition at 5 µg/mL [%] |
| --- | --- |
| O=C(COC1CCC(Oc2ccc([N+](=O)[O-])c(C(F)(F)F)c2)CC1)N1CCN(Cc2nc3cc(C(F)(F)F)ccc3s2)CC1 (centres unmarked) [Compound 311, 2-[4-(4-nitro-3-trifluoromethyl-phenoxy)-cyclohexyloxy]-1-[4-(5-trifluoromethyl-benzothiazol-2-ylmethyl)-piperazin-1-yl]-ethanone] | ≥ 90 |
| O=C(NCCO[C@H]1CC[C@H](Nc2ccc([N+](=O)[O-])c(C(F)(F)F)c2)CC1)C(=O)Nc1ccc2cc(Cl)ccc2c1 [Compound 174] | ≥ 90 |
| CC1(CN2CCN(C(=O)CO[C@H]3CC[C@H](Nc4ccc([N+](=O)[O-])c(C(F)(F)F)c4)CC3)CC2)Cc2cc(F)ccc2O1 (some centres unmarked) [Compound 377, 1-[4-[(5-fluoro-2-methyl-3H-benzofuran-2-yl)methyl]piperazin-1-yl]-2-[4-[4-nitro-3-(trifluoromethyl)anilino]cyclohexoxy]ethanone] | ≥ 90 |
| O=C(NCCO[C@H]1CC[C@H](Nc2ccc([N+](=O)[O-])c(C(F)(F)F)c2)CC1)C(=O)Nc1ccc2cc(C(F)(F)F)ccc2n1 [Compound 240, N^1-(2-(-4-(4-nitro-3-(trifluoromethyl)phenylamino)cyclohexyloxy)ethyl)-N^2-(6-(trifluoromethyl)quinolin-2-yl)oxalamide] | ≥ 90 |
| C[C@@H]1CN(Cc2nc3cc(F)ccc3s2)[C@@H](C)CN1C(=O)CO[C@H]1CC[C@H](Nc2ccc([N+](=O)[O-])c(C(F)(F)F)c2)CC1 [Compound 370, 1-[(2R,5S)-4-(5-fluoro-benzothiazol-2-ylmethyl)-2,5-dimethyl-piperazin-1-yl]-2-[4-(4-nitro-3-trifluoromethyl-phenylamino)-cyclohexyloxy]-ethanone] | ≥ 90 |
| C[C@@H]1CN(C(=O)CO[C@H]2CC[C@H](Nc3ccc([N+](=O)[O-])c(C(F)(F)F)c3)CC2)C[C@H](C)N1c1ccc2cc(F)ccc2n1 [Compound 381, 1-[(3S,5R)-4-(6-fluoro-quinolin-2-yl)-3,5-dimethyl-piperazin-1-yl]-2-[4-(4-nitro-3-trifluoromethyl-phenylamino)-cyclohexyloxy]-ethanone] | ≥ 90 |
| CC(Cc1cc2cc(C(F)(F)F)ccc2o1)N1CCN(C(=O)CO[C@H]2CC[C@H](Nc3ccc([N+](=O)[O-])c(C(F)(F)F)c3)CC2)CC1 (some centres unmarked) [Compound 330, 1-[4-[1-methyl-2-[5-(trifluoromethyl)benzofuran-2-yl]ethyl]piperazin-1-yl]-2-[4-[4-nitro-3-(trifluoromethyl)anilino]cyclohexoxy]ethanone] | ≥ 90 |
| O=C(NCCO[C@H]1CC[C@H](Nc2ccc([N+](=O)[O-])c(C(F)(F)F)c2)CC1)C(=O)Nc1ccc2cc(F)ccc2n1 [Compound 239, N^1-(6-fluoroquinolin-2-yl)-N^2-(2-(-4-(4-nitro-3-(trifluoromethyl)phenylamino)cyclohexyloxy)ethyl)oxalamide] | ≥ 90 |
| CC(CN1CCN(c2ccc3ccccc3n2)CC1)C(=O)N1CCC(Nc2ccc([N+](=O)[O-])c(C(F)(F)F)c2)CC1 (centres unmarked) [Compound 91, 2-methyl-1-(4-[[4-nitro-3-(trifluoromethyl)phenyl]amino]piperidin-1-yl)-3-[4-(quinolin-2-yl)piperazin-1-yl]propan-1-one] | ≥ 90 |
| N#Cc1ccc(N[C@H]2CC[C@H](OCC(=O)N3CCN(C(=O)C4Cc5cc(Cl)ccc5O4)CC3)CC2)cc1C(F)(F)F (some centres unmarked) [Compound 85, 4-(4-{2-[4-(5-chloro-2,3-dihydro-benzofuran-2-carbonyl)-piperazin-1-yl]-2-oxo-ethoxy}-cyclohexylamino)-2-trifluoromethyl-benzonitrile] | ≥ 90 |
| O=[N+]([O-])c1ccc(N[C@H]2CC[C@H](OCC(=S)N3CCN(c4ccc5cc(F)ccc5n4)CC3)CC2)cc1C(F)(F)F [Compound 264, 1-[4-(6-fluoro-quinolin-2-yl)-piperazin-1-yl]-2-[4-(4-nitro-3-trifluoro-methyl-phenylamino)-cyclohexyloxy]-ethanethione] | ≥ 90 |
| C[C@@H]1CN(C(=O)CO[C@H]2CC[C@H](Nc3ccc([N+](=O)[O-])c(C(F)(F)F)c3)CC2)C[C@H](C)N1Cc1ccc2cc(C(F)(F)F)ccc2c1 [Compound 374, 1-[(3S,5R)-3,5-dimethyl-4-(6-trifluoromethyl-naphthalen-2-ylmethyl)-piperazin-1-yl]-2-[4-(4-nitro-3-trifluoromethyl-phenylamino)-cyclohexyloxy]-ethanone] | ≥ 90 |
| N#Cc1ccc(N[C@H]2CC[C@H](OCC(=O)N3CCN(Cc4oc5ccc(F)cc5c4Cl)CC3)CC2)cc1C(F)(F)F [Compound 313, 4-(4-{2-[4-(3-chloro-5-fluoro-benzofuran-2-ylmethyl)-piperazin-1-yl]-2-oxo-ethoxy}-cyclohexylamino)-2-trifluoromethyl-benzonitrile] | ≥ 90 |
| O=C(NCCO[C@H]1CC[C@H](Nc2ccc([N+](=O)[O-])c(C(F)(F)F)c2)CC1)C(=O)Nc1ccc2cc(C(F)(F)F)ccc2c1 [Compound 173] | ≥ 90 |
| C[C@@H]([C@@H]1Cc2cc(F)ccc2O1)N1CCN(C(=O)COC2CCC(Nc3ccc([N+](=O)[O-])c(C(F)(F)F)c3)CC2)CC1 (relative stereo) [Compound 260-10, 1-(4-((S)-1-((S)-5-fluoro-2,3-dihydrobenzofuran-2-yl)ethyl)piperazin-1-yl)-2-(4-(4-nitro-3-(trifluoromethyl)phenylamino)cyclohexyloxy)ethanone] | ≥ 90 |
| CN(c1ccc(C#N)c(C(F)(F)F)c1)[C@H]1CC[C@H](OCC(=O)N2CCN(CC3Cc4cc(F)ccc4O3)CC2)CC1 (some centres unmarked) [Compound 280, 4-[(4-{2-[4-(5-fluoro-2,3-dihydro-benzofuran-2-ylmethyl)-piperazin-1-yl]-2-oxo-ethoxy}-cyclohexyl)-methyl-amino]-2-trifluoromethyl-benzonitrile] | ≥ 90 |
| C[C@@H]1CN(Cc2ccc3cc(F)ccc3c2)[C@@H](C)CN1C(=O)CO[C@H]1CC[C@H](Nc2ccc([N+](=O)[O-])c(C(F)(F)F)c2)CC1 [Compound 357, 1-[(2R,5S)-4-(6-fluoro-naphthalen-2-ylmethyl)-2,5-dimethyl-piperazin-1-yl]-2-[4-(4-nitro-3-trifluoromethyl-phenylamino)-cyclohexyloxy]-ethanone] | ≥ 90 |

system: microfilaria of Dirofilaria immitis; experiment: Method F: microfilaria of Dirofilaria immitis, survival at 24 hours; conditions: not given

| Structure (SMILES) | EC50 [µg/mL] |
| --- | --- |
| O=C(CO[C@H]1CC[C@H](Nc2ccc([N+](=O)[O-])c(C(F)(F)F)c2)CC1)N1CCc2cc(Cl)ccc2C1 [Compound 195, 1-(6-chloro-1,2,3,4-tetrahydroisoquinolin-2-yl)-2-[[4-[[4-nitro-3-(trifluoromethyl)phenyl]amino]cyclohexyl]oxy]ethan-1-one] | < 1 |

same assay, conditions: survival of microfilaria at 24 hours

| Structure (SMILES) | EC50 [µg/mL] |
| --- | --- |
| O=C(CO[C@H]1CC[C@H](Nc2ccc([N+](=O)[O-])c(C(F)(F)F)c2)CC1)N1CCN(c2ccnc3ccccc23)CC1 [Compound 160, 2-[(4-[[4-nitro-3-(trifluoromethyl)phenyl]amino]cyclohexyl)oxy]-1-[4-(quinolin-4-yl)piperazin-1-yl]ethan-1-one] | < 5 |
| O=C(CO[C@H]1CC[C@H](Nc2ccc([N+](=O)[O-])c(C(F)(F)F)c2)CC1)N1CCN(c2ccc(Cl)c3ccccc23)CC1 [Compound 161, 1-[4-(4-chloronaphthalen-1-yl)piperazin-1-yl]-2-[(4-[[4-nitro-3-(trifluoromethyl)phenyl]amino]cyclohe-xyl)oxy]ethan-1-one] | < 5 |
| N#Cc1ccc(NC2CCN(C(=O)CCCN3CCN(c4ccc5cc(C(F)(F)F)ccc5n4)CC3)CC2)cc1C(F)(F)F [Compound 95, 2-(trifluoromethyl)-4-[[1-(4-[4-[6-(trifluoromethyl)quinolin-2-yl]piperazin-1-yl]butanoyl)piperidin-4-yl]amino]benzonitrile] | < 5 |
| O=C(COc1ccc2ccc([N+](=O)[O-])c(C(F)(F)F)c2c1)N1CCN(c2ccc(Cl)cn2)CC1 [Compound 114, 1-[4-(5-chloropyridin-2-yl)piperazin-1-yl]-2-[[7-nitro-8-(trifluoromethyl)naphthalen-2-yl]oxy]ethan-1-one] | < 5 |
| Cc1cc(N2CCN(CC(C)C(=O)N3CCC(Nc4ccc([N+](=O)[O-])c(C(F)(F)F)c4)CC3)CC2)nc2ccccc12 (centres unmarked) [Compound 101, 2-methyl-3-[4-(4-methylquinolin-2-yl)piperazin-1-yl]-1-(4-[[4-nitro-3-(trifluoromethyl)phenyl]amino]piperidin-1-yl)propan-1-one] | < 1 |
| N#Cc1ccc(NC2CCN(C(=O)CCCN3CCN(c4ccc5ccccc5c4)CC3)CC2)cc1C(F)(F)F [Compound 15, 4-[(1-[4-[4-(naphthalen-2-yl)piperazin-1-yl]butanoyl]piperidin-4-yl)amino]-2-(trifluoromethyl)benzonitrile] | < 5 |
| O=C(NCCOc1ccc(Nc2ccc([N+](=O)[O-])c(C(F)(F)F)c2)cc1)C(=O)NCc1cc2cc(F)ccc2o1 [Compound 229, N^1-((5-fluorobenzofuran-2-yl)methyl)-N^2-(2-(4-(4-nitro-3-(trifluoromethyl)phenylamino)phenoxy)ethyl)oxalamide] | < 1 |
| O=C(NCCOc1ccc(Nc2ccc([N+](=O)[O-])c(C(F)(F)F)c2)cc1)C(=O)NCc1cc2cc(C(F)(F)F)ccc2o1 [Compound 231] | < 5 |
| Cc1cc(N2CCN(CC(C)C(=O)N3CCC(Nc4ccc([N+](=O)[O-])c(C(F)(F)F)c4)CC3)CC2)nc2ccc(F)cc12 (centres unmarked) [Compound 102, 3-[4-(6-fluoro-4-methylquinolin-2-yl)piperazin-1-yl]-2-methyl-1-(4-[[4-nitro-3-(trifluoromethyl)phenyl]amino]piperidin-1-yl)propan-1-one] | < 1 |
| CN(C(=O)C(=O)NCCO[C@H]1CC[C@H](Nc2ccc([N+](=O)[O-])c(C(F)(F)F)c2)CC1)c1ccc2cc(F)ccc2n1 [Compound 242] | < 1 |
| N#Cc1ccc(NC2CCN(C(=O)CCCN3CCN(c4ccc5ccccc5n4)CC3)CC2)cc1C(F)(F)F [Compound 94, 4-[(1-[4-[4-(quinolin-2-yl)piperazin-1-yl]butanoyl]piperidin-4-yl)amino]-2-(trifluoromethyl)benzonitrile] | < 5 |

Source: US9249102B2 (priority 2012, dated 2016)
